Measurements from the supplement of paper PMC10307832.

Tests used:
Experiment in all cases: relative viability (nuclei count vs DMSO), 5 days (fraction); higher = more cells survive
[1] = compound: Nc1ccccc1NC(=O)c1ccc(CNC(=O)OCc2cccnc2)cc1 [Entinostat] + COc1cccc2cc(-c3nc([C@H]4CC[C@H](C(=O)O)CC4)n4ncnc(N)c34)[nH]c12 [OSI-027] (partner 0.5 µM)
Summary of the method: (§1)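 One day after seeding in 1536-well plates, lung cancer cell lines were dosed by pin tool. Dosing was either single-drug or a fixed anchor-drug dose plus five library-drug doses (not always all listed) in √10 steps. After 5 days, nuclei were stained in one fix-and-stain step and counted on 4× images, and relative viability is the nuclei count of treated wells over that of vehicle wells, given as the median of duplicate plates.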

[2] = compound: CN1CCC(CNc2ccc3ncc(-c4cccc(OC(F)(F)F)c4)n3n2)CC1 [SGI-1776] + COc1cc2c(Oc3ccc(NC(=O)C4(C(=O)Nc5ccc(F)cc5)CC4)cc3F)ccnc2cc1OCCCN1CCOCC1 [Foretinib] (partner 0.25 µM)
Summary of the method: as §1

[3] = compound: C1COCCN1C2=NC(=NC3=C2OC4=C3C=CC=N4)C5=CC(=CC=C5)NC(=O)C6=CN=C(C=C6)N + Nc1nc2[nH]cc(CCc3ccc(C(=O)N[C@@H](CCC(=O)O)C(=O)O)cc3)c2c(=O)[nH]1 [Pemetrexed] (partner 0.2 µM)
Summary of the method: as §1

[4] = compound: C1COCCN1C2=NC(=NC3=C2OC4=C3C=CC=N4)C5=CC(=CC=C5)NC(=O)C6=CN=C(C=C6)N + CCNC(=O)c1noc(-c2cc(C(C)C)c(O)cc2O)c1-c1ccc(CN2CCOCC2)cc1 [Luminespib] (partner 0.01 µM)
Summary of the method: as §1

With NCI-H2009 the relative viability ([1]; first compound 0.02 µM) was 0.59, the relative viability ([1]; first compound 0.06325 µM) was 0.691 and the relative viability ([1]; first compound 0.2 µM) was 0.628. The relative viability ([1]; first compound 0.6325 µM) was 0.636, the relative viability ([1]; first compound 2 µM) was 0.451 and the relative viability ([2]; first compound 0.08 µM) was 1.19. It also gave a relative viability ([2]; first compound 0.8 µM) of 1.27, a relative viability ([2]; first compound 2.53 µM) of 1.24 and a relative viability ([2]; first compound 8 µM) of 0.931. It also gave a relative viability ([3]; first compound 0.02 µM) of 1.07, a relative viability ([3]; first compound 0.06325 µM) of 1.05 and a relative viability ([3]; first compound 0.2 µM) of 1.07. For the same cell line, the relative viability ([3]; first compound 0.6325 µM) was 1.01, the relative viability ([3]; first compound 2 µM) was 0.849 and the relative viability ([4]; first compound 0.02 µM) was 1.07. The relative viability ([4]; first compound 0.06325 µM) was 1.07, the relative viability ([4]; first compound 0.2 µM) was 0.999 and the relative viability ([4]; first compound 0.6325 µM) was 1.01. It also gave a relative viability ([4]; first compound 2 µM) of 0.725.
NCI-H2347 was tested, and the relative viability ([1]; first compound 0.02 µM) was 0.292, the relative viability ([1]; first compound 0.06325 µM) was 0.284 and the relative viability ([1]; first compound 0.2 µM) was 0.175. It also gave a relative viability ([1]; first compound 0.6325 µM) of 0.217, a relative viability ([1]; first compound 2 µM) of 0.153 and a relative viability ([2]; first compound 0.08 µM) of 0.836. For the same cell line, the relative viability ([2]; first compound 0.8 µM) was 0.862, the relative viability ([2]; first compound 2.53 µM) was 0.531 and the relative viability ([2]; first compound 8 µM) was 0.84. The relative viability ([3]; first compound 0.02 µM) was 0.416, the relative viability ([3]; first compound 0.06325 µM) was 0.528 and the relative viability ([3]; first compound 0.2 µM) was 0.433. For the same cell line, the relative viability ([3]; first compound 0.6325 µM) was 0.417, the relative viability ([3]; first compound 2 µM) was 0.427 and the relative viability ([4]; first compound 0.02 µM) was 0.37. The relative viability ([4]; first compound 0.06325 µM) was 0.283, the relative viability ([4]; first compound 0.2 µM) was 0.341 and the relative viability ([4]; first compound 0.6325 µM) was 0.342. The relative viability ([4]; first compound 2 µM) was 0.315.
SW 900 showed a relative viability ([1]; first compound 0.02 µM) of 0.696, a relative viability ([1]; first compound 0.06325 µM) of 0.659 and a relative viability ([1]; first compound 0.2 µM) of 0.647. The relative viability ([1]; first compound 0.6325 µM) was 0.319, the relative viability ([1]; first compound 2 µM) was 0.397 and the relative viability ([2]; first compound 0.08 µM) was 1.05. The relative viability ([2]; first compound 0.8 µM) was 1.12, the relative viability ([2]; first compound 2.53 µM) was 0.9 and the relative viability ([2]; first compound 8 µM) was 0.817. For the same cell line, the relative viability ([3]; first compound 0.02 µM) was 0.497, the relative viability ([3]; first compound 0.06325 µM) was 0.476 and the relative viability ([3]; first compound 0.2 µM) was 0.455. The relative viability ([3]; first compound 0.6325 µM) was 0.469, the relative viability ([3]; first compound 2 µM) was 0.254 and the relative viability ([4]; first compound 0.02 µM) was 0.203. The relative viability ([4]; first compound 0.06325 µM) was 0.166, the relative viability ([4]; first compound 0.2 µM) was 0.172 and the relative viability ([4]; first compound 0.6325 µM) was 0.152. The relative viability ([4]; first compound 2 µM) was 0.174.
In the case of NCI-H1563, the relative viability ([1]; first compound 0.02 µM) is reported as 0.723, the relative viability ([1]; first compound 0.06325 µM) is reported as 0.687 and the relative viability ([1]; first compound 0.2 µM) is reported as 0.707. The relative viability ([1]; first compound 0.6325 µM) was 0.653, the relative viability ([1]; first compound 2 µM) was 0.547 and the relative viability ([2]; first compound 0.08 µM) was 0.949. The relative viability ([2]; first compound 0.8 µM) was 0.952, the relative viability ([2]; first compound 2.53 µM) was 0.92 and the relative viability ([2]; first compound 8 µM) was 0.888. It also gave a relative viability ([3]; first compound 0.02 µM) of 0.795, a relative viability ([3]; first compound 0.06325 µM) of 0.699 and a relative viability ([3]; first compound 0.2 µM) of 0.767. For the same cell line, the relative viability ([3]; first compound 0.6325 µM) was 0.694, the relative viability ([3]; first compound 2 µM) was 0.685 and the relative viability ([4]; first compound 0.02 µM) was 0.492. For the same cell line, the relative viability ([4]; first compound 0.06325 µM) was 0.516, the relative viability ([4]; first compound 0.2 µM) was 0.542 and the relative viability ([4]; first compound 0.6325 µM) was 0.474. The relative viability ([4]; first compound 2 µM) was 0.48.
NCI-H727 gave a relative viability ([1]; first compound 0.02 µM) of 0.679, a relative viability ([1]; first compound 0.06325 µM) of 0.808 and a relative viability ([1]; first compound 0.2 µM) of 0.5. It also gave a relative viability ([1]; first compound 0.6325 µM) of 0.493, a relative viability ([1]; first compound 2 µM) of 0.398 and a relative viability ([2]; first compound 0.08 µM) of 0.988. The relative viability ([2]; first compound 0.8 µM) was 0.971, the relative viability ([2]; first compound 2.53 µM) was 0.926 and the relative viability ([2]; first compound 8 µM) was 0.671. For the same cell line, the relative viability ([4]; first compound 0.02 µM) was 0.482, the relative viability ([4]; first compound 0.06325 µM) was 0.317 and the relative viability ([4]; first compound 0.2 µM) was 0.323. The relative viability ([4]; first compound 0.6325 µM) was 0.335 and the relative viability ([4]; first compound 2 µM) was 0.346.
With Calu-6 the relative viability ([2]; first compound 0.08 µM) was 0.91, the relative viability ([2]; first compound 0.8 µM) was 0.88 and the relative viability ([2]; first compound 2.53 µM) was 0.875. The relative viability ([2]; first compound 8 µM) was 0.344.
EBC-1 was tested, and the relative viability ([2]; first compound 0.08 µM) was 0.0952, the relative viability ([2]; first compound 0.8 µM) was 0.0955 and the relative viability ([2]; first compound 2.53 µM) was 0.127. For the same cell line, the relative viability ([2]; first compound 8 µM) was 0.0874.
For NCI-H1703, the relative viability ([2]; first compound 0.08 µM) was 0.403, the relative viability ([2]; first compound 0.8 µM) was 0.322 and the relative viability ([2]; first compound 2.53 µM) was 0.291. It also gave a relative viability ([2]; first compound 8 µM) of 0.282.
IA-LM showed a relative viability ([2]; first compound 0.08 µM) of 1.13, a relative viability ([2]; first compound 0.8 µM) of 1.2 and a relative viability ([2]; first compound 2.53 µM) of 1.3. It also gave a relative viability ([2]; first compound 8 µM) of 1.07.
For HCC-44, the relative viability ([1]; first compound 0.02 µM) was 0.53, the relative viability ([1]; first compound 0.06325 µM) was 0.518 and the relative viability ([1]; first compound 0.2 µM) was 0.333. The relative viability ([1]; first compound 0.6325 µM) was 0.182, the relative viability ([1]; first compound 2 µM) was 0.176 and the relative viability ([3]; first compound 0.02 µM) was 0.616. For the same cell line, the relative viability ([3]; first compound 0.06325 µM) was 0.639, the relative viability ([3]; first compound 0.2 µM) was 0.676 and the relative viability ([3]; first compound 0.6325 µM) was 0.682. It also gave a relative viability ([3]; first compound 2 µM) of 0.653, a relative viability ([4]; first compound 0.02 µM) of 0.99 and a relative viability ([4]; first compound 0.06325 µM) of 1.17. For the same cell line, the relative viability ([4]; first compound 0.2 µM) was 1.05, the relative viability ([4]; first compound 0.6325 µM) was 1.22 and the relative viability ([4]; first compound 2 µM) was 0.687.
NCI-H1648 gave a relative viability ([1]; first compound 0.02 µM) of 0.247, a relative viability ([1]; first compound 0.06325 µM) of 0.27 and a relative viability ([1]; first compound 0.2 µM) of 0.257. It also gave a relative viability ([1]; first compound 0.6325 µM) of 0.271, a relative viability ([1]; first compound 2 µM) of 0.296 and a relative viability ([3]; first compound 0.02 µM) of 0.743. For the same cell line, the relative viability ([3]; first compound 0.06325 µM) was 0.893, the relative viability ([3]; first compound 0.2 µM) was 0.819 and the relative viability ([3]; first compound 0.6325 µM) was 0.754. For the same cell line, the relative viability ([3]; first compound 2 µM) was 0.554.
NCI-H522 was tested, and the relative viability ([1]; first compound 0.02 µM) was 0.84, the relative viability ([1]; first compound 0.06325 µM) was 0.764 and the relative viability ([1]; first compound 0.2 µM) was 0.85. The relative viability ([1]; first compound 0.6325 µM) was 0.688, the relative viability ([1]; first compound 2 µM) was 0.555 and the relative viability ([3]; first compound 0.02 µM) was 0.915. For the same cell line, the relative viability ([3]; first compound 0.06325 µM) was 0.966, the relative viability ([3]; first compound 0.2 µM) was 0.941 and the relative viability ([3]; first compound 0.6325 µM) was 0.972. It also gave a relative viability ([3]; first compound 2 µM) of 0.963, a relative viability ([4]; first compound 0.02 µM) of 0.993 and a relative viability ([4]; first compound 0.06325 µM) of 1.23. For the same cell line, the relative viability ([4]; first compound 0.2 µM) was 1.13, the relative viability ([4]; first compound 0.6325 µM) was 0.986 and the relative viability ([4]; first compound 2 µM) was 0.719.
Work on A549 yielded a relative viability ([2]; first compound 0.08 µM) of 1.07, a relative viability ([2]; first compound 0.8 µM) of 0.891 and a relative viability ([2]; first compound 2.53 µM) of 0.752. The relative viability ([2]; first compound 8 µM) was 0.277.
In the case of HCC-78, the relative viability ([1]; first compound 0.02 µM) is reported as 0.402, the relative viability ([1]; first compound 0.06325 µM) is reported as 0.33 and the relative viability ([1]; first compound 0.2 µM) is reported as 0.351. For the same cell line, the relative viability ([1]; first compound 0.6325 µM) was 0.344, the relative viability ([1]; first compound 2 µM) was 0.261 and the relative viability ([2]; first compound 0.08 µM) was 0.553. It also gave a relative viability ([2]; first compound 0.8 µM) of 0.566, a relative viability ([2]; first compound 2.53 µM) of 0.595 and a relative viability ([2]; first compound 8 µM) of 0.606. For the same cell line, the relative viability ([3]; first compound 0.02 µM) was 0.913, the relative viability ([3]; first compound 0.06325 µM) was 0.944 and the relative viability ([3]; first compound 0.2 µM) was 0.926. For the same cell line, the relative viability ([3]; first compound 0.6325 µM) was 0.929 and the relative viability ([3]; first compound 2 µM) was 0.64.
